Data on two molecules can be found in ChEMBL document CHEMBL5532657, “Serendipitous discovery of Class I HDAC inhibitors from rational design of molecular glue degraders targeting HDAC” (Eur J Med Chem, 2024).

The source made the active and inactive calls. No cut-off for these calls is given here. Bounds are passed on as bounds.

In assay [1] the target is T1, Histone deacetylase (Homo sapiens) (UniProt Q13547+O15379+Q9UBN7+Q92769+Q9UQL6+Q8WUI4+Q9BY41+Q96DB2+P56524+Q9UKV0+Q969S8). The experiment in a line: Inhibition of HDAC in human RS4-11 cells assessed as upregulation of histone H4 acetylation at 1 to 10 uM by Western blot assay. It is filed as cell-based. Particulars: dose 1-10 µM. Background: A western blot detects proteins with antibodies after separation by electrophoresis.

Assay [2] has as its target T2, Protein deacetylase HDAC6 (Homo sapiens) (UniProt Q9UBN7).
T2 sequence (whole entry): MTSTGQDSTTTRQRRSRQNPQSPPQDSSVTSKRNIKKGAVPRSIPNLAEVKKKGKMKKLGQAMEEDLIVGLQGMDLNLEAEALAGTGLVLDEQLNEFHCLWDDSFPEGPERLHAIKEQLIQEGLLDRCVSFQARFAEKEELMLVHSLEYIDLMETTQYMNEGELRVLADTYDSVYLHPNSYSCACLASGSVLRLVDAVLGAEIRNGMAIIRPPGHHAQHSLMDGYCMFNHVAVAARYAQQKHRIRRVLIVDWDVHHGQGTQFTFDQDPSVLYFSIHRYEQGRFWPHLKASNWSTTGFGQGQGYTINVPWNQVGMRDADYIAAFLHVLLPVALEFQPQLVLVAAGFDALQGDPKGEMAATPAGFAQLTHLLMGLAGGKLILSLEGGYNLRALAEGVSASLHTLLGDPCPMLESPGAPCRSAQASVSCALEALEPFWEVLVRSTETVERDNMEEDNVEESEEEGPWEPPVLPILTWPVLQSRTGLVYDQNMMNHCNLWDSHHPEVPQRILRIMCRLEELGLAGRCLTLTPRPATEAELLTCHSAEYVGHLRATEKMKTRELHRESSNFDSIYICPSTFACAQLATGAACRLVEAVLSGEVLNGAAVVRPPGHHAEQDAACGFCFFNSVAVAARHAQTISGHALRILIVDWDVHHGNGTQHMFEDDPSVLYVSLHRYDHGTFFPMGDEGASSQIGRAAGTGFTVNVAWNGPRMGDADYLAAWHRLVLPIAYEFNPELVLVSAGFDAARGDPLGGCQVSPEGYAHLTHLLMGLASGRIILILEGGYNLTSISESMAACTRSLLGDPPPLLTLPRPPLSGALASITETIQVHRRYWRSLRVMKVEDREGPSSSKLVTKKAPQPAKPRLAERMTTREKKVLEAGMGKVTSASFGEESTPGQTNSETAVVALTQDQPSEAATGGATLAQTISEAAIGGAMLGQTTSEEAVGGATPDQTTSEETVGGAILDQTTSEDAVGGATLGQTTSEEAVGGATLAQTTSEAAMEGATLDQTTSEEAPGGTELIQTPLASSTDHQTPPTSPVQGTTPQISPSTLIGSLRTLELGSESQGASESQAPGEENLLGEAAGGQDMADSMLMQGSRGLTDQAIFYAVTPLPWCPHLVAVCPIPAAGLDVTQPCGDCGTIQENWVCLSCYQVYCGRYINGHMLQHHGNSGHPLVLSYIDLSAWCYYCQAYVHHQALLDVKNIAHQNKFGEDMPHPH
The experiment in a line: Inhibition of HDAC6 in human RS4-11 cells assessed as effect on alpha-tubulin acetylation by Western blot assay. It is filed as cell-based.

The next assay concerns RPMI-8226. The experiment in a line: Antiproliferative activity against human RPMI-8226 cells assessed as cell growth inhibition incubated for 48 hrs by CCK-8 assay. The note with it: RPMI-8226, 48 h. The assay is classed as functional, cell-based.
The subject of assay [3] is RS4-11. The experiment in a line: Antiproliferative activity against human RS4-11 cells assessed as cell growth inhibition incubated for 48 hrs by CCK-8 assay. It is filed as functional, cell-based. The note with it: RS4-11, 48 h. A general note: Formazan colour is commonly taken as a measure of viable cells.
Assay [4] has as its system RS4-11. Briefly: Induction of apoptosis in human RS4-11 cells assessed as downregulation of Bcl-2 level. The assay is classed as functional, cell-based. The note with it: dose 1-10 µM.
The target in assay [5] is T3, Histone deacetylase 1 (Homo sapiens, UniProt Q13547). The experiment in a line: Inhibition of HDAC1 (unknown origin) using BocLys(acetyl)-AMC as substrate incubated for 1 hr by fluorescence plate reader analysis.
T3 sequence (Q13547 whole entry): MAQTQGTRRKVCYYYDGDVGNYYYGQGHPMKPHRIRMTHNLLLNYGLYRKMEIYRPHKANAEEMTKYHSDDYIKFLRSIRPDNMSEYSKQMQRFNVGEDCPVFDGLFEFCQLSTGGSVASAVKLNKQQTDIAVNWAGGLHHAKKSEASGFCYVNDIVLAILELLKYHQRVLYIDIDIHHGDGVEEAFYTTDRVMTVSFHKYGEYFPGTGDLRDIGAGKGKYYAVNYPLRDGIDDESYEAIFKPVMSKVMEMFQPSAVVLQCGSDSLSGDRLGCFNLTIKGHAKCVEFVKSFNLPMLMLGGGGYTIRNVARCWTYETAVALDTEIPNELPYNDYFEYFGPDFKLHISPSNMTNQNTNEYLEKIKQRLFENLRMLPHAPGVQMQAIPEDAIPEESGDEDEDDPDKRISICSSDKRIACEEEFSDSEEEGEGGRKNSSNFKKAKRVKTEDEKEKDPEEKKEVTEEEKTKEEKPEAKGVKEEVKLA
For assay [6], the target named is DNA-binding protein Ikaros (Homo sapiens) (UniProt Q13422). The experiment in a line: Induction of IKZF1 degradation in human RS4-11 cells at 1 to 10 uM by Western blotting analysis. The assay is classed as cell-based. Particulars: dose 1-10 µM.
Chain of DNA-binding protein Ikaros (Homo sapiens) (Q13422 whole entry): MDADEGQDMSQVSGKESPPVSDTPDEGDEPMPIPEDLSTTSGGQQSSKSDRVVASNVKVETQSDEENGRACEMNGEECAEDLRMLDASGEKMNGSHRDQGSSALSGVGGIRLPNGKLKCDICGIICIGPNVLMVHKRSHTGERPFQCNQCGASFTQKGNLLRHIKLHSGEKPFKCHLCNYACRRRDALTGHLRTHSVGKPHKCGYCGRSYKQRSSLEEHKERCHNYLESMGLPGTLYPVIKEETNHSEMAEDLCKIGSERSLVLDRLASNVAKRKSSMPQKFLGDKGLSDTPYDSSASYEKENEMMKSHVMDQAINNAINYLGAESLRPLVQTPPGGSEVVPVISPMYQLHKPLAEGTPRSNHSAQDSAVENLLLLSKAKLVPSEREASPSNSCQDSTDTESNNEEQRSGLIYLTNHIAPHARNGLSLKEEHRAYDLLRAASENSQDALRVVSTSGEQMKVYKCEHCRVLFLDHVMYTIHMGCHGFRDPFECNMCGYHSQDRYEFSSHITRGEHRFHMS
Assay [7] has as its target T1, Histone deacetylase (Homo sapiens). The experiment in a line: Inhibition of HDAC in human RS4-11 cells assessed as upregulation of histone H3 acetylation by Western blot assay. It is filed as cell-based.
The test system of a further assay is HCT-116. The experiment in a line: Antiproliferative activity against human HCT-116 cells assessed as cell growth inhibition at 5 uM incubated for 48 hrs by CCK-8 assay. It is filed as functional, cell-based.
For assay [8], the target named is Zinc finger protein Aiolos (Homo sapiens) (UniProt Q9UKT9). The experiment in a line: Induction of IKZF3 degradation in human RS4-11 cells at 1 to 10 uM by Western blotting analysis. The note with it: dose 1-10 µM. The assay is classed as cell-based.
Chain of Zinc finger protein Aiolos (Homo sapiens) (Q9UKT9 whole entry): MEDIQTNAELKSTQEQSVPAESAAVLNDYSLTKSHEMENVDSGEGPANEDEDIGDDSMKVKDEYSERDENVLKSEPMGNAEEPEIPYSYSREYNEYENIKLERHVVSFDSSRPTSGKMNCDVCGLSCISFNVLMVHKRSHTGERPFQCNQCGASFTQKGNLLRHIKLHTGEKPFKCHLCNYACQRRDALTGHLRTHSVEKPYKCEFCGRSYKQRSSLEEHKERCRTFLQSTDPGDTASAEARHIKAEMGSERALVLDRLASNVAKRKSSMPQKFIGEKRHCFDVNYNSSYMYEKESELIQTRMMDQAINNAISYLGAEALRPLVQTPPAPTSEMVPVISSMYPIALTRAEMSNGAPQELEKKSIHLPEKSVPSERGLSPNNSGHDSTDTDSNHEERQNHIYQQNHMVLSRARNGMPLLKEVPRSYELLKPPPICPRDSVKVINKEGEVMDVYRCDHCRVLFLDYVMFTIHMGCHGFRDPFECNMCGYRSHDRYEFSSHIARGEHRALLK
The test system of assay [9] is RS4-11. Briefly: Induction of apoptosis in human RS4-11 cells assessed as cleavage of caspase-3 at 1 to 10 uM. The assay is classed as functional, cell-based. The note with it: dose 1-10 µM.
Assay [10] concerns RS4-11. The experiment in a line: Antiproliferative activity against human RS4-11 cells assessed as cell growth inhibition at 5 uM incubated for 48 hrs by CCK-8 assay. The assay is classed as functional, cell-based.
Assay [11] deals with RS4-11. The experiment in a line: Induction of apoptosis in human RS4-11 cells assessed as upregulation of Bax level. It is filed as functional, cell-based. Particulars: dose 1-10 µM.
The subject of the next assay is A549. Briefly: Antiproliferative activity against human A549 cells assessed as cell growth inhibition at 5 uM incubated for 48 hrs by CCK-8 assay. It is filed as functional, cell-based.
The target in assay [12] is T1, Histone deacetylase (Homo sapiens). The experiment in a line: Inhibition of HDAC in human RS4-11 cells assessed as upregulation of histone H3 acetylation at 1 to 10 uM by Western blot assay. The assay is classed as cell-based. Particulars: dose 1-10 µM.
The target in another assay is T4, Histone deacetylase 11 (Homo sapiens, UniProt Q96DB2).
T4 sequence (Q96DB2 whole entry): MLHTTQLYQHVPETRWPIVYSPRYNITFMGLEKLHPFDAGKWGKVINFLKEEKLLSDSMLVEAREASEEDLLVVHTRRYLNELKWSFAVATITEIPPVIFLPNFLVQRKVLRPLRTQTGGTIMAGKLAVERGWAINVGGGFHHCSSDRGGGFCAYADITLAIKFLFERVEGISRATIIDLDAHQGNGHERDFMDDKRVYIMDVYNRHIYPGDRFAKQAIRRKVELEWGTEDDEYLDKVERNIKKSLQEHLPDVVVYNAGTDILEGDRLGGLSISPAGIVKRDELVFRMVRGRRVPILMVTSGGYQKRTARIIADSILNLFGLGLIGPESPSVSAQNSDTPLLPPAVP
The experiment in a line: Inhibition of HDAC11 in human HeLa cells nuclear extract using BocLys(acetyl)-AMC as substrate incubated for 1 hr by fluorescence plate reader analysis. It is filed as subcellular, Nucleus.

In assay [13] the target is T3, Histone deacetylase 1. The experiment in a line: Induction of HDAC1 degradation in human RS4-11 cells at 0.5 to 10 uM incubated for 12 hrs by Western blotting analysis. The note with it: dose 0.5-10 µM. The assay is classed as cell-based.
The target of assay [14] is T5, Protein deacetylase HDAC6 (Homo sapiens, UniProt Q9UBN7).
T5 sequence (Q9UBN7 whole entry): T2 sequence (whole entry)
The experiment in a line: Inhibition of HDAC6 (unknown origin) using BocLys(acetyl)-AMC as substrate incubated for 1 hr by fluorescence plate reader analysis.

For another assay, the target named is Histone deacetylase 9 (Homo sapiens, UniProt Q9UKV0). Briefly: Inhibition of HDAC9 in human HeLa cells nuclear extract using BocLys(acetyl)-AMC as substrate incubated for 1 hr by fluorescence plate reader analysis. The assay is classed as subcellular, Nucleus.
Chain of Histone deacetylase 9 (Q9UKV0 whole entry): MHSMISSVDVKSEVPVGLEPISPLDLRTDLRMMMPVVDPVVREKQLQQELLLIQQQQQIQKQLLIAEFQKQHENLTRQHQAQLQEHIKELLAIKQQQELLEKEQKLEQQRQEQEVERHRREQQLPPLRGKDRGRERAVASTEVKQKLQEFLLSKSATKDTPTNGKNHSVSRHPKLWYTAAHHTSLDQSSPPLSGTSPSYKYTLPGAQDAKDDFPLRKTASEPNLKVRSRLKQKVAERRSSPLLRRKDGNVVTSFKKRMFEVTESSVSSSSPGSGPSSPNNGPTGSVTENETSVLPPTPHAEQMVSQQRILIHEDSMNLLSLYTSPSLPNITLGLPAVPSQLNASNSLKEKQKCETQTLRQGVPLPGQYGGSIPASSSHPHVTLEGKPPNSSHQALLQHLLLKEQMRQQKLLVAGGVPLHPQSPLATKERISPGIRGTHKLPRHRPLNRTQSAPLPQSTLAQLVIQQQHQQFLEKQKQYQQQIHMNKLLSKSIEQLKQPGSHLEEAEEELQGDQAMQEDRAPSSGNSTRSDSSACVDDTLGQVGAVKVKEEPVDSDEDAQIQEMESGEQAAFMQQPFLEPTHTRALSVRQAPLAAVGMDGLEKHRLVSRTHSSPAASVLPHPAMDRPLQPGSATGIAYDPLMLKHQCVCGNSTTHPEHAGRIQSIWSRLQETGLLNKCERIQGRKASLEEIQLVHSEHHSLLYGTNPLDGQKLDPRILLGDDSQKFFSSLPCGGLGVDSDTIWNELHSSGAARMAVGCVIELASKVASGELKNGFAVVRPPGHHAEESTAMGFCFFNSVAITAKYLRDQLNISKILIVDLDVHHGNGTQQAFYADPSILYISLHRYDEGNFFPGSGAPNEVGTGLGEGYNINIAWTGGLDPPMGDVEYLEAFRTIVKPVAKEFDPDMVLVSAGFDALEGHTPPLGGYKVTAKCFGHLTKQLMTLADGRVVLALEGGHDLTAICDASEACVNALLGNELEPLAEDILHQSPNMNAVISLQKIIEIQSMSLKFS
The test system of another assay is K562. Briefly: Antiproliferative activity against human K562 cells assessed as cell growth inhibition at 5 uM incubated for 48 hrs by CCK-8 assay. The assay is classed as functional, cell-based.

On to `Nc1ccccc1NC(=O)c1ccc(CNc2cccc3c2C(=O)N(C2CCC(=O)NC2=O)C3=O)cc1` (stereo not given), for which the outcome (in assay [1]; in assay [6]; in assay [8]; in the assay with RS4-11 [9]; in the assay on RS4-11 [10]; in assay [12]) was Active. The result in the assay on K562 was Active. Further, the outcome (in assay [2]; with HCT-116; in the assay with A549; at Histone deacetylase 1 [13]) was inactive. Further, the IC50 (usually the concentration that gives 50% inhibition) was 5.75 µM in the assay on RPMI-8226; 1.57 µM in the assay on RS4-11 [3]; 0.551 µM on Histone deacetylase 1 [5]; greater than 2 µM against Histone deacetylase 11; greater than 2 µM in assay [14]; greater than 2 µM at Histone deacetylase 9. Further, the Activity result in the assay on RS4-11 [4] and in the assay on RS4-11 [11] was “Dose-Dependent Effect” each time. For the same molecule, the inhibition entry in assay [7] was “Active”.

For `Nc1cc(F)ccc1NC(=O)c1ccc(CNc2cccc3c2C(=O)N(C2CCC(=O)NC2=O)C3=O)cc1` (stereo not given), the result (in [1]; in [6]; in assay [8]; with RS4-11 [9]; in the assay with RS4-11 [10]; in assay [12]) was Active. The outcome with K562 was Active. The outcome (in assay [2]; with HCT-116; in the assay with A549; at Histone deacetylase 1 [13]) was inactive. Also, the IC50 was 3.72 µM with RPMI-8226; 2.11 µM with RS4-11 [3]; 0.457 µM on Histone deacetylase 1 [5]; greater than 2 µM at Histone deacetylase 11; greater than 2 µM in assay [14]; greater than 2 µM on Histone deacetylase 9. Besides, the Activity result in the assay on RS4-11 [4] and in the assay with RS4-11 [11] was “Dose-Dependent Effect” throughout. Besides, the inhibition entry in assay [7] is “Active”.
